Assay results from US5519024A, “Quinolonecarboxylic acid derivatives and their use” (Takeda Chemical Industries, Ltd., priority 1993, dated 1996).

Biological target: T1, GPIIb/IIIa (Homo sapiens, UniProt P05106+P08514)
T1 construct: Purification of GPIIb/IIIa from HEL cells; endogenous in cells; host or cells: HEL cells (HEL 92.1.7, ATCC TIB180); endogenous complex solubilized with Triton X-100 and purified in house
Assay: Inhibitory activity against binding of GPIIb/IIIa and fibrinogen
Settings: Table 2; for inhibition at 10 µM / inhibition at 1 µM: read-out: GPIIb/IIIa Fibrinogen Binding Inhibitory Activity
Procedure: Test Example 1: Inhibitory activity against binding of GPIIb/IIIa and fibrinogen
(1) Cultivation of human erythroleukemia-derived cell line (hereinafter referred to as HEL cells)
HEL cells (HEl92.1.7; ATCC No. TIB180) were purchased from ATCC (Rockville, Md., U.S.A.). The medium was RPMI medium (GIBCO Laboratories, Grand Island, N..Y, U.S.A.) containing 40 mM N-2-hydroxyethylpiperazine-N'-2-ethanesulfonic acid (hereinafter referred to as HEPES) (pH 7.0), 0.2% NaHCO3, 100 μg/ml kanamycin and 10% FCS. The cells were cultured in the presence of 5% CO2 at 37° C., with the medium replaced with a fresh medium to obtain a 4- to 5-fold dilution at intervals of 3 to 4 days.
(2) Purification of GPIIb/IIIa from HEL cells
GPIIb/IIIa was purified by a modification of the method of L. A. Fitzgerald et al. [J. Biol. Chem., 262, 3936 (1987)] as follows: All purification was conducted at room temperature, unless otherwise stated. At 7 days of cultivation, cells were collected from the HEL cell culture broth (cell suspension) by centrifugation (1,000 ×g, 10 minutes, 4° C.). After washing with 20 mM Tris-HCl (pH 7.5) containing 1 mM EDTA and 150 mM NaCl, the cells were suspended in a solubilizing buffer (20 mM Tris-HCl, 150 mM NaCl, 1% Triton X-100, 1 mM MgCl2, 1 mM CaCl2, 0.1 mM (p-amidinophenyl)methanesulfonyl fluoride (hereinafter referred to as APMSF), 10 nM leupeptin, 0.02% NaN3, pH 7.4), followed by gentle stirring at 4° C. for 30 minutes, to solubilize the GPIIb/IIIa. The suspension was centrifuged (100,000 ×g, 1 hour) at 4° C., and the cell debris removed, to yield a cell extract. The cell extract was passed through a Heparin-Sepharose CL-6B column (Pharmacia LKB) and a DEAE-Toyopearl 650M column (Tosoh), both previously equilibrated with a column buffer (20 mM Tris-HCl, 150 mM NaCl, 0.1% Triton X-100, 1 mM MgCl2, 1 mM CaCl2, 0.1 mM APMSF, 1 nM leupeptin, 0.05% NaN3, pH 7.4). The effluent was applied to a ConA-Sepharose column (Pharmacia LKB), previously equilibrated with the same column buffer as above, to adsorb the GPIIb/IIIa, followed by elution with the same column buffer but containing 0.5M methyl α-D-mannopyranoside. The eluted fraction was concentrated at 4° C. using an ultrafiltration apparatus (Amicon Corporation the fraction's molecular weight of 10,000), after which it was subjected to gel filtration through a Sephacryl S-300 column (Pharmacia LKB), previously equilibrated with the same column buffer, to yield a purified standard sample.
(3) Biotinization of human fibrinogen
Conducted by the method of I. F. Charo [I. F. Charo et al., J. Biol. Chem., 266, 1415 (1991)].
Human fibrinogen (Kabi Vitrum AB) was dissolved in PBS to 5 mg/ml and then dialyzed at 4° C. against 0.1M carbonate buffer (pH 8.2) containing 0.1M NaCl. After dialysis, insoluble substances were removed by centrifugation (100,000 ×g, 30 minutes), and the dialyzate was diluted to 1 mg/ml with the same buffer. To this dilution, sulfo-N-hydroxysuccinimidebiotin (Pierce Chemical Co.) was added to a final concentration of 0.2 mg/ml, followed by gentle mixing at room temperature for 30 minutes, to biotinize the fibrinogen. After completion of the reaction, the mixture was dialyzed against 0.05M Tris-HCl buffer (pH 7.4) containing 0.1M NaCl and 0.05% NaN3.
(4) Determination of inhibitory activity against fibrinogen binding
Conducted by a modification of the method of I. F. Charo [I. F. Charo et al., J. Biol. Chem., 266, 1415 (1991)] as follows: The purified GPIIb/IIIa was diluted to 1 μg/ml with buffer A (20 mM Tris-HCl, 150 mM NaCl, 1 mM CaCl2, 0.02% NaN3, pH 7.4). A 100 μl aliquot of this dilution was dispensed to a 96-well microplate (Maxisorp, produced by Nunc), and the plate kept standing at 4° C., to adsorb the GPIIb/IIIa to the microplate. Next, 150 μl of buffer B (35 mg/ml BSA, 50 mM Tris-HCl, 100 mM NaCl, 2 mM CaCl2, 0.02% NaN3, pH 7.4) was added, followed by 2 hours of blocking at 30° C. […]

T1 sequence (P08514 32-887 limits assumed): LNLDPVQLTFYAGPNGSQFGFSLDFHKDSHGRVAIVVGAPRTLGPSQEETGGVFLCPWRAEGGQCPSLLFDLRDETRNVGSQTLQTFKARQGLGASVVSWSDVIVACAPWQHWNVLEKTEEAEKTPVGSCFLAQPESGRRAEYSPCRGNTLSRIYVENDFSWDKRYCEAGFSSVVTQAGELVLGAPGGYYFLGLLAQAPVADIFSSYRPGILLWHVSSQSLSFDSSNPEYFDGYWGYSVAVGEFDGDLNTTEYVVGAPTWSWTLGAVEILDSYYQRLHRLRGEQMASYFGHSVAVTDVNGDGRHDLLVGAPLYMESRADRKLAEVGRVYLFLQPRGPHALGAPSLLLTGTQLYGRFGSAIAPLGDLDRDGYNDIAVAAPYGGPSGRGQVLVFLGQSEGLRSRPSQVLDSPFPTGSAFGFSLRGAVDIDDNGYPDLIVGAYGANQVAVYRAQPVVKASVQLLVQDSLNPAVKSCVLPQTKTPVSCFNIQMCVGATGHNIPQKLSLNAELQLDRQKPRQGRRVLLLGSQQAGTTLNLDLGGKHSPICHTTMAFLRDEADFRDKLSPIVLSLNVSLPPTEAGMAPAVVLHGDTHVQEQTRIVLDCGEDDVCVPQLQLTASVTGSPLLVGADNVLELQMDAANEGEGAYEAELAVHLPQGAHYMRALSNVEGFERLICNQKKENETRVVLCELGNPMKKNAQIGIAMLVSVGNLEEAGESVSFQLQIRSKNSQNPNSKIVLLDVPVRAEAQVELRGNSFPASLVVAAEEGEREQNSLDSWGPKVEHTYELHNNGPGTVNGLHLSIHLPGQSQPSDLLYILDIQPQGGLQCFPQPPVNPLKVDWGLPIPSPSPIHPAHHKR
T1 sequence (P08514 891-1039 limits assumed): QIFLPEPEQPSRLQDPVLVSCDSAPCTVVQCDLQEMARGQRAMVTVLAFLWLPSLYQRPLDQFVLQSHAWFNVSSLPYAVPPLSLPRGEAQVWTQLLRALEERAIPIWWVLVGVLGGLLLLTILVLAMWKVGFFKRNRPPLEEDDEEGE
T1 sequence (P05106 27-788): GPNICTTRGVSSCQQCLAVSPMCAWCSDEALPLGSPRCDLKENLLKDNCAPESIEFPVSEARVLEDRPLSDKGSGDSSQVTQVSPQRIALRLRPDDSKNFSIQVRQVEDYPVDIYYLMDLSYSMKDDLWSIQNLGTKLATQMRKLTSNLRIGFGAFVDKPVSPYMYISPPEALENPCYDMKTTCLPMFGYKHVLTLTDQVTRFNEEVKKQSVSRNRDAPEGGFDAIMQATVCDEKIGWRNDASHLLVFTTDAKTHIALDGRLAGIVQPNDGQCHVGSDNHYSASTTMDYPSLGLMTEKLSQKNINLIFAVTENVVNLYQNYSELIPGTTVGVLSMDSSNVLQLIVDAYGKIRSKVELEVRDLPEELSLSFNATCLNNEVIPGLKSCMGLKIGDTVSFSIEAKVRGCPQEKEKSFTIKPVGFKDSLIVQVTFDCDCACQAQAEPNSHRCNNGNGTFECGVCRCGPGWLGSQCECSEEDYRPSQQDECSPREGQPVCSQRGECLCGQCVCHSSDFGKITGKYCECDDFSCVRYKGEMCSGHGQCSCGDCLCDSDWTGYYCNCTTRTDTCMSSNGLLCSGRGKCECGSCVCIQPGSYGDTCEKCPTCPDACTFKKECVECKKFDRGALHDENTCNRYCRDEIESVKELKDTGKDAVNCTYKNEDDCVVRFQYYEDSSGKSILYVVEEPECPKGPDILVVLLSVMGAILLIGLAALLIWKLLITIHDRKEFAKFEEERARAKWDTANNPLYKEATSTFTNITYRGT

| inhibition at 10 µM (10^-5 M) [%] | inhibition at 1 µM (10^-6 M) [%] | GPIIb/IIIa Fibrinogen Binding Inhibitory Activity (10^-5 M) [%] | GPIIb/IIIa Fibrinogen Binding Inhibitory Activity (10^-6 M) [%] | Compound |
| --- | --- | --- | --- | --- |
| 70.7 | 48.6 |  |  | CN1CCN(c2c(F)cc3c(=O)c(C(=O)O)cn(C)c3c2F)CC1 [Compound 1] |
| 72.4 | 48.4 |  |  | Cn1cc(C(=O)O)c(=O)c2cc(F)c(N3Cc4ccccc4C(N)C3)c(F)c21 (stereo not drawn) [Compound 2] |
| 82.2 | 57.1 |  |  | CCn1cc(C(=O)O)c(=O)c2cc(F)c(N3CCN(c4ccncc4)CC3)cc21 [Compound 3, 1-Ethyl-6-fluoro-7-[4-(4-pyridyl)piperazin-1-yl]-1,4-dihydro-4-oxoquinoline-3-carboxylic acid] |
| 70.9 | 33 |  |  | CCn1cc(C(=O)O)c(=O)c2cc(F)c(N3CCN(Cc4ccccn4)CC3)cc21 [Compound 4] |
| 60.3 | 26 |  |  | CCn1cc(C(=O)O)c(=O)c2cc(F)c(SC3CCN(C)CC3)cc21 [Compound 5] |
| 83.3 | 39.3 |  |  | CCn1cc(C(=O)O)c(=O)c2cc(F)c(N3CCN4CCCC4C3)c(F)c21 (stereo not drawn) [Compound 6] |
| 91 | 62.1 |  |  | CN1CCN(c2c(F)cc3c(=O)c(C(=O)O)cn(CCF)c3c2F)CC1 [Compound 7] |
| 79.3 | 53.1 |  |  | O=C(O)c1cn(CCF)c2c(F)c(N3CCN4CCCC4C3)c(F)cc2c1=O (stereo not drawn) [Compound 8] |
| 69.5 | 43.9 |  |  | O=C(O)c1cn(CCF)c2c(F)c(N3CCn4ccnc4C3)c(F)cc2c1=O [Compound 9] |
| 91.3 | 72.9 |  |  | O=C(O)c1cn(CCO)c2c(F)c(N3CCn4ccnc4C3)c(F)cc2c1=O [Compound 10, 1-(2-Hydroxyethyl)-6,8-difluoro-7-(5,6,7,8-tetrahydroimidazo[1,2-a]pyrazin-7-yl)-1,4-dihydro-4-oxoquinoline-3-carboxylic acid] |
| 96.8 | 84.3 |  |  | NC(=O)OCCn1cc(C(=O)O)c(=O)c2cc(F)c(N3CCNCC3)c(F)c21 [Compound 11, 1-(2-Carbamoyloxyethyl)-6,8-difluoro-7-(1-piperazinyl)1,4-dihydro-4-oxoquinoline-3-carboxylic acid] |
| 70.5 | 54.7 |  |  | CN(C)CCn1cc(C(=O)O)c(=O)c2cc(F)c(N3CCN(C)CC3)cc21 [Compound 13] |
| 60.5 | 33.9 |  |  | CC(=O)N1CC(n2cc(C(=O)O)c(=O)c3cc(F)c(N4CCN(C)CC4)c(F)c32)C1 [Compound 15] |
| 60.4 | 43.2 |  |  | CN1CCN(c2c(F)cc3c(=O)c(C(=O)O)cn(C4CN(C)C4)c3c2F)CC1 [Compound 16] |
| 47.3 | 17.1 |  |  | CN1CCN(c2c(F)cc3c(=O)c(C(=O)O)cn(C4CC4)c3c2F)CC1 [Compound 17] |
| 42.6 | 30.5 |  |  | O=C(O)c1cn(C2CC2)c2c(F)c(N3CCn4ccnc4C3)c(F)cc2c1=O [Compound 18] |
| 49.7 | 7 |  |  | O=C(O)c1cn(C2CC2)c2c(F)c(SC3CCNCC3)c(F)cc2c1=O [Compound 19] |
| 59.4 | 12 |  |  | CNCCN(C)c1nc2c(cc1F)c(=O)c(C(=O)O)cn2C1CC1 [Compound 20] |

| inhibition at 10 µM (10^-5 M) [%] | inhibition at 1 µM (10^-6 M) [%] | GPIIb/IIIa Fibrinogen Binding Inhibitory Activity (10^-5 M) [%] | GPIIb/IIIa Fibrinogen Binding Inhibitory Activity (10^-6 M) [%] | Compound |
| --- | --- | --- | --- | --- |
| 69.9 | 31.3 |  |  | CN(C)CCN(C)c1nc2c(cc1F)c(=O)c(C(=O)O)cn2C1CC1 [Compound 21] |
| 72.3 | 36.2 |  |  | CCNCC1CCN(c2c(F)cc3c(=O)c(C(=O)O)cn(C4CC4)c3c2F)C1 (stereo not drawn) [Compound 23] |
| 50 | 24.9 |  |  | CCN1CCCC1CNc1c(F)cc2c(=O)c(C(=O)O)cn(C3CC3)c2c1F (stereo not drawn) [Compound 24] |
| 87.8 | 67.7 |  |  | CN(C)CCOC1CCN(c2c(F)cc3c(=O)c(C(=O)O)cn(C4CC4)c3c2F)C1 (stereo not drawn) [Compound 25] |
| 94.1 | 71.4 |  |  | CN1CCN(C(=O)OC2CCN(c3c(F)cc4c(=O)c(C(=O)O)cn(C5CC5)c4c3F)C2)CC1 (stereo not drawn) [Compound 26] |
| 78.4 | 42.6 |  |  | CCNCc1cn2c(n1)CN(c1c(F)cc3c(=O)c(C(=O)O)cn(C4CC4)c3c1F)CC2 [Compound 27] |
| 95.8 | 73.3 |  |  | CN(C)Cc1cn2c(n1)CN(c1c(F)cc3c(=O)c(C(=O)O)cn(C4CC4)c3c1F)CC2 [Compound 28, 1-Cyclopropyl-6,8-difluoro-7-(2-dimethylaminomethyl-5,6,7,8-tetrahydroimidazo[1,2-a]pyrazin-7-yl)-1,4-dihydro-4-oxoquinoline-3-carboxylic acid] |
| 68.7 | 38.4 |  |  | Cc1cnc2n1CCN(c1c(F)cc3c(=O)c(C(=O)O)cn(C4CC4)c3c1F)C2 [Compound 29] |
| 54.8 | 24.2 |  |  | O=C(O)c1cn(C2CC2)c2c(F)c(N3CCn4cc(CN5CCOCC5)nc4C3)c(F)cc2c1=O [Compound 30] |
| 73 | 39.3 |  |  | O=C(O)c1cn(C2CC2)c2c(F)c(N3CCN4CCC[C@@H]4C3)c(F)cc2c1=O [Compound 31] |
| 71.2 | 39.5 |  |  | O=C(O)c1cn(C2CC2)c2cc(N3CCN4CCC[C@H]4C3)c(F)cc2c1=O [Compound 32] |
|  |  | 68.3 | 33.6 | O=C(O)c1cn(C2CC2)c2c(F)c(N3CCN4CCC[C@@H]4C3)c(F)cc2c1=O [Compound 33] |
| 77 | 49.4 |  |  | O=C(O)c1cn(C2CC2)c2c(F)c(N3CCc4ccccc4C3)c(F)cc2c1=O [Compound 34] |
| 51.8 | 21.5 |  |  | NC1CN(c2c(F)cc3c(=O)c(C(=O)O)cn(C4CC4)c3c2F)Cc2ccccc21 (stereo not drawn) [Compound 35] |
| 56 | 36.3 |  |  | O=C(O)c1cn(C2CC2)c2c(F)c(N3Cc4ccccc4C(CO)C3)c(F)cc2c1=O (stereo not drawn) [Compound 36] |
| 60.1 | 32.5 |  |  | NCC1CN(c2c(F)cc3c(=O)c(C(=O)O)cn(C4CC4)c3c2F)Cc2ccccc21 (stereo not drawn) [Compound 37] |
| 50.8 | 31.9 |  |  | NC1CCCN(c2c(F)cc3c(=O)c(C(=O)O)cn(C4CC4)c3c2F)C1 (stereo not drawn) [Compound 38] |

| Compound | inhibition at 10 µM (10^-5 M) [%] | inhibition at 1 µM (10^-6 M) [%] | GPIIb/IIIa Fibrinogen Binding Inhibitory Activity (10^-5 M) [%] | GPIIb/IIIa Fibrinogen Binding Inhibitory Activity (10^-6 M) [%] |
| --- | --- | --- | --- | --- |
| CN(C)CCn1cc(C(=O)O)c(=O)c2cc(F)c(N3CCNCC3)cc21 [Compound 12] | 79.1 | 65.1 |  |  |
| O=C(O)CCn1cc(C(=O)O)c(=O)c2cc(F)c(N3CCNCC3)c(F)c21 [Compound 14] |  | 56.1 |  |  |
| O=C(O)c1cn(C2CC2)c2c(F)c(N3CCNCC3)c(F)cc2c1=O [Compound 22] | 72.7 | 39.8 |  |  |
